Results on 36 compounds are retold here after patent US12545659B2, “IRAK degraders and uses thereof” (Kymera Therapeutics, Inc., priority 2019, dated 2026).

Where only a bound is given, the exact number is not on record here.

For one assay, the target named is T1, IRAK4 (Homo sapiens, UniProt Q9NWZ3).
T1 construct: endogenous in cells; host or cells: OCI-LY10
T1 sequence (Q9NWZ3 1-460): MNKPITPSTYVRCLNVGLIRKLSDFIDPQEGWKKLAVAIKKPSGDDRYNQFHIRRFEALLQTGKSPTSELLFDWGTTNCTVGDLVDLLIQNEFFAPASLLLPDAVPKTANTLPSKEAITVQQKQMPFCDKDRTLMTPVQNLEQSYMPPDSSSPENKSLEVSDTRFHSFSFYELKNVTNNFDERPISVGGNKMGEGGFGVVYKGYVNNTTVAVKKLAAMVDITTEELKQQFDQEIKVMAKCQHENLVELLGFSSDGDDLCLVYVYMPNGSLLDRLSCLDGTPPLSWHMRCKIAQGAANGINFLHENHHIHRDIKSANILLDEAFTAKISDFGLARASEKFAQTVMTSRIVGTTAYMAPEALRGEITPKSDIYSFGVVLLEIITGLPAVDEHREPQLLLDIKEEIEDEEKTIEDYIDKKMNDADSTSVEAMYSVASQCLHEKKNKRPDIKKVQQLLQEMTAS
In words: IRAK4 MSD Degradation in OCI-LY10. To be noted: OCI-LY10 cells, 4 hrs incubation, read-out: IRAK4 degradation in OCI-LY10 at 4 hrs: DC50. In kind it is cell-based. The procedure, abridged:
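OCI-LY10 cells treated with 8-dose, 1:3 dilution series (top final 1 to 10 μM) for 4 to 24 h at 37 °C, 5% CO2. Lysate IRAK4 quantified by MSD sandwich immunoassay (mouse 2H9 capture, rabbit Y279 detection, SULFO-TAG anti-rabbit); DC50 from three-parameter logistic fit.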
Turning to `COc1cc2nn([C@H]3CC[C@H](CN4CCC(CCNc5cccc6c5n(C)c(=O)n6C5CCC(=O)NC5=O)CC4)CC3)cc2cc1NC(=O)c1ccc(F)c(C)n1` (stereo partly drawn) [I-144], the DC50 was under 50 nM. With `COc1cc2nn([C@H]3CC[C@H](CN4CCC(CCCc5ccc6c(c5)n(C)c(=O)n6C5CCC(=O)NC5=O)CC4)CC3)cc2cc1NC(=O)c1cccc(C(F)(F)F)n1` (stereo partly drawn) [I-145], the DC50 lay in the range of 50 to 100 nM. For the compound `Cn1c(=O)n(C2CCC(=O)NC2=O)c2cccc(CCN3CCN(C[C@H]4CC[C@H](n5cc6cc(NC(=O)c7cccc(C(F)(F)F)n7)c(C(C)(C)O)cc6n5)CC4)CC3)c21` (stereo partly drawn) [I-146], the DC50 was under 50 nM. Take `Cn1c(=O)n(C2CCC(=O)NC2=O)c2cccc(NC[C@H]3CC[C@H](n4cc5cc(NC(=O)c6cccc(C(F)(F)F)n6)c(C(C)(C)O)cc5n4)CC3)c21` (stereo partly drawn) [I-147, N-[2-[4-[[[1-(2,6-dioxo-3-piperidyl)-3-methyl-2-oxo-benzimidazol-4-yl]amino]methyl]cyclohexyl]-6-(1-hydroxy-1-methyl-ethyl)indazol-5-yl]-6-(trifluoromethyl)pyridine-2-carboxamide]: the DC50 lay within 500 to 1000 nM. On the same count and under the same terms, next, `CN(CC#Cc1ccc2c(c1)n(C)c(=O)n2C1CCC(=O)NC1=O)C[C@H]1CC[C@H](n2cc3cc(NC(=O)c4cccc(C(F)(F)F)n4)c(C(F)F)cc3n2)CC1` (stereo partly drawn) [I-148]: 500 to 1000 nM; `Cn1c(=O)n(C2CCC(=O)NC2=O)c2ccc(N3CCN(C[C@H]4CC[C@H](n5cc6cc(NC(=O)c7cccc(C(F)(F)F)n7)c(C(F)F)cc6n5)CC4)CC3)cc21` (stereo partly drawn) [I-149]: under 50 nM; `COc1cc2nn([C@H]3CC[C@H](CNc4cccc5c4n(C)c(=O)n5C4CCC(=O)NC4=O)CC3)cc2cc1NC(=O)c1cccc(C(F)(F)F)n1` (stereo partly drawn) [I-150]: 500 to 1000 nM. As to `Cn1c(=O)n(C2CCC(=O)NC2=O)c2cccc(C[C@H]3C[C@]4(CC[C@@H](N(C)C[C@H]5CC[C@H](n6cc7cc(NC(=O)c8cccc(C(F)(F)F)n8)c(C(F)F)cc7n6)CC5)CC4)C3)c21` (stereo partly drawn) [I-151], the DC50 was 50 to 100 nM. Same read-out and setting: next, `COc1cc2nn([C@H]3CC[C@H](CN(C)[C@H]4CC[C@@]5(CC4)C[C@@H](Cc4cccc6c4n(C)c(=O)n6C4CCC(=O)NC4=O)C5)CC3)cc2cc1NC(=O)c1cccc(C(F)(F)F)n1` (stereo partly drawn) [I-152]: 50 to 100 nM; `Cn1c(=O)n(C2CCC(=O)NC2=O)c2cccc(NC3CC4(CCN(C[C@H]5CC[C@H](n6cc7cc(NC(=O)c8cccc(C(F)(F)F)n8)c(C(C)(C)O)cc7n6)CC5)CC4)C3)c21` (stereo partly drawn) [I-153]: under 50 nM. For `Cn1c(=O)n(C2CCC(=O)NC2=O)c2cccc(CCCC3CCN(C[C@H]4CC[C@H](n5cc6cc(NC(=O)c7cccc(C(F)(F)F)n7)c(N7C[C@@H]8C[C@H]7CO8)cc6n5)CC4)CC3)c21` (stereo partly drawn) [I-154], the 50% degradation concentration (DC50) lay in the range of 50 to 100 nM. `Cn1c(=O)n(C2CCC(=O)NC2=O)c2cccc(C[C@H]3C[C@@]4(CC[C@@H](N(C)C[C@H]5CC[C@H](n6cc7cc(NC(=O)c8cccc(C(F)(F)F)n8)c(C(F)F)cc7n6)CC5)CC4)C3)c21` (stereo partly drawn) [I-155]: the DC50 is under 50 nM.

On to `COc1cc2nn([C@H]3CC[C@H](CN4CCN(c5ccc6c(c5)n(C)c(=O)n6C5CCC(=O)NC5=O)CC4)CC3)cc2cc1NC(=O)c1cccc(C(C)(C)F)n1` (stereo partly drawn) [I-156], for which the DC50 was 50 to 100 nM. Same read-out and setting: next, `Cn1c(=O)n(C2CCC(=O)NC2=O)c2ccc(N3CCN(C[C@H]4CC[C@H](n5cc6cc(NC(=O)c7cccc(C(C)(C)F)n7)c(C(F)F)cc6n5)CC4)CC3)cc21` (stereo partly drawn) [I-157]: 50 to 100 nM; `COc1cc2nn([C@H]3CC[C@H](CN4CCC(CCCc5cccc6c5n(C)c(=O)n6C5CCC(=O)NC5=O)CC4)CC3)cc2cc1NC(=O)c1cnn2cccnc12` (stereo partly drawn) [I-158]: under 50 nM; `COc1cc2nn([C@H]3CC[C@H](CN(C)[C@H]4CC[C@]5(CC4)C[C@@H](Cc4cccc6c4n(C)c(=O)n6C4CCC(=O)NC4=O)C5)CC3)cc2cc1NC(=O)c1cccc(C(F)(F)F)n1` (stereo partly drawn) [I-160]: 50 to 100 nM. Turning to `COc1cc2nn([C@H]3CC[C@H](CN4CCC5(CC4)CC(Nc4cccc6c4n(C)c(=O)n6C4CCC(=O)NC4=O)C5)CC3)cc2cc1NC(=O)c1cccc(C(F)(F)F)n1` (stereo partly drawn) [I-162], the DC50 was under 50 nM.

As for `COc1cc2nn([C@H]3CC[C@H](CN4CCC5(CC4)CC(CNc4cccc6c4n(C)c(=O)n6C4CCC(=O)NC4=O)C5)CC3)cc2cc1NC(=O)c1cccc(C(F)(F)F)n1` (stereo partly drawn) [I-163], the half-maximal degradation concentration (DC50) fell in the range of 50 to 100 nM. Same read-out and setting: next, `Cn1c(=O)n(C2CCC(=O)NC2=O)c2cccc(NCC3CC4(CCN(C[C@H]5CC[C@H](n6cc7cc(NC(=O)c8cccc(C(F)(F)F)n8)c(C(C)(C)O)cc7n6)CC5)CC4)C3)c21` (stereo partly drawn) [I-166]: under 50 nM; `COc1cc2nn([C@H]3CC[C@H](CN4CCN(c5cccc6c5n(C)c(=O)n6C5CCC(=O)NC5=O)CC4)CC3)cc2cc1NC(=O)c1cccc(C(C)(C)F)n1` (stereo partly drawn) [I-167]: 50 to 100 nM; `CN(C[C@H]1CC[C@H](n2cc3cc(NC(=O)c4cccc(C(F)(F)F)n4)c(C(F)F)cc3n2)CC1)C1CCN(c2cccc3c2n(C)c(=O)n3C2CCC(=O)NC2=O)CC1` (stereo partly drawn) [I-168]: under 50 nM. The same measure, in the same setting: next, `Cn1c(=O)n(C2CCC(=O)NC2=O)c2cccc(N3CCN(C[C@H]4CC[C@H](n5cc6cc(NC(=O)c7cccc(C(F)(F)F)n7)c(OC(F)(F)F)cc6n5)CC4)CC3)c21` (stereo partly drawn) [I-169]: 50 to 100 nM; `COc1cc2nn([C@H]3CC[C@H](CN4CCN(c5cccc6c5n(C)c(=O)n6C5CCC(=O)NC5=O)CC4)CC3)cc2cc1NC(=O)c1cccc(C(F)(F)F)n1` (stereo partly drawn) [I-171]: under 50 nM; `Cn1c(=O)n(C2CCC(=O)NC2=O)c2cccc(N3CCN(C[C@H]4CC[C@H](n5cc6cc(NC(=O)c7cccc(C(F)(F)F)n7)c(C(C)(C)O)cc6n5)CC4)CC3)c21` (stereo partly drawn) [I-172]: under 50 nM.

On to `Cn1c(=O)n(C2CCC(=O)NC2=O)c2cccc(N3CCN(C[C@H]4CC[C@H](n5cc6cc(NC(=O)c7cccc(C(F)(F)F)n7)c(C(F)F)cc6n5)CC4)CC3)c21` (stereo partly drawn) [I-176], for which the DC50 was under 50 nM. On the same count and under the same terms, next, `Cn1c(=O)n(C2CCC(=O)NC2=O)c2cccc(N3CCN(C[C@H]4CC[C@H](n5cc6cc(NC(=O)c7cccc(C(C)(C)F)n7)c(C(F)F)cc6n5)CC4)CC3)c21` (stereo partly drawn) [I-177]: 50 to 100 nM. Turning to `CN(C[C@H]1CC[C@H](n2cc3cc(NC(=O)c4cccc(C(F)(F)F)n4)c(N4CCOCC4)cc3n2)CC1)C1CCN(c2cccc3c2n(C)c(=O)n3C2CCC(=O)NC2=O)CC1` (stereo partly drawn) [I-178], the DC50 was under 50 nM. Consider `CN(C[C@H]1CC[C@H](n2cc3cc(NC(=O)c4cccc(C(F)(F)F)n4)c(N4C[C@@H]5C[C@H]4CO5)cc3n2)CC1)C1CCN(c2cccc3c2n(C)c(=O)n3C2CCC(=O)NC2=O)CC1` (stereo partly drawn) [I-179], for which the DC50 was under 50 nM.

The assay is the same for the next values; noted with them: OCI-LY10 cells, 24 hrs incubation, read-out: IRAK4 degradation in OCI-LY10 at 24 hrs: DC50.
Turning to `COc1cc2nn([C@H]3CC[C@H](CN4CCC5(CC4)CC(CCNc4cccc6c4C(=O)N(C4CCC(=O)NC4=O)C6=O)C5)CC3)cc2cc1NC(=O)[C@@H]1CCCCN1` (stereo partly drawn) [I-143], the DC50 was 500 to 1000 nM. Same read-out and setting: next, `O=C1CCC(N2C(=O)c3cccc(NCCC4CC5(CCN(C[C@H]6CC[C@H](n7cc8cc(NC(=O)c9cccc(C(F)(F)F)n9)c(OC9CC9)cc8n7)CC6)CC5)C4)c3C2=O)C(=O)N1` (stereo partly drawn) [I-159]: under 50 nM; `CN(CCCO[C@H]1C[C@H](Nc2cccc3c2C(=O)N(C2CCC(=O)NC2=O)C3=O)C1)C[C@@]1(C)Cc2cc(NC(=O)c3cnn4cccnc34)c(N3CCOCC3)cc2O1` (stereo partly drawn) [I-161, N-[(2R)-2-[[3-[3-[[2-(2,6-dioxo-3-piperidyl)-1,3-dioxo-isoindolin-4-yl]amino]cyclobutoxy]propyl-methyl-amino]methyl]-2-methyl-6-morpholino-3H-benzofuran-5-yl]pyrazolo[1,5-a]pyrimidine-3-carboxamide]: 500 to 1000 nM. On the same count and under the same terms, next, `COc1cc2nc([C@H]3CC[C@H](CN4CC5(CC(CCNc6cccc7c6C(=O)N(C6CCC(=O)NC6=O)C7=O)C5)C4)CC3)oc2cc1NC(=O)c1cccc(C(F)(F)F)n1` (stereo partly drawn) [I-180]: 100 to 500 nM; `CN[C@@H](C)C(=O)N[C@H](C(=O)N1CCC[C@H]1c1nc(C(=O)c2cccc(OCCCC3CC4(CCN(C[C@H]5CC[C@H](n6cc7cc(NC(=O)c8cccc(C(F)(F)F)n8)c(OC)cc7n6)CC5)CC4)C3)c2)cs1)C1CCCCC1` [I-181, N-[2-[4-[[2-[3-[3-[2-[(2S)-1-[(2S)-2-cyclohexyl-2-[[(2S)-2-(methylamino)propanoyl]amino]acetyl]pyrrolidin-2-yl]thiazole-4-carbonyl]phenoxy]propyl]-7-azaspiro[3.5]nonan-7-yl]methyl]cyclohexyl]-6-methoxy-indazol-5-yl]-6-(trifluoromethyl)pyridine-2-carboxamide]: 500 to 1000 nM; `CC(C)(O)c1cc2nc([C@H]3CC[C@H](CN4CCC5(CC4)CC(CCNc4cccc6c4C(=O)N(C4CCC(=O)NC4=O)C6=O)C5)CC3)oc2cc1NC(=O)c1cccc(C(F)(F)F)n1` (stereo partly drawn) [I-182]: 500 to 1000 nM. The same measure, in the same setting: next, `CC(C)(O)c1cc2nc([C@H]3CC[C@H](CN4CCC5(CC4)CC(Nc4cccc6c4C(=O)N(C4CCC(=O)NC4=O)C6=O)C5)CC3)oc2cc1NC(=O)c1cccc(C(F)(F)F)n1` (stereo partly drawn) [I-183]: 50 to 100 nM. Turning to `CC(C)(O)c1cc2nc(N3CCC(CN4CCC5(CC4)CC(Nc4cccc6c4C(=O)N(C4CCC(=O)NC4=O)C6=O)C5)CC3)oc2cc1NC(=O)c1cccc(C(F)(F)F)n1` (stereo not drawn) [I-184], the DC50 lay in the range of 50 to 100 nM.
